Patent publication US10660959B2, “Formulations of a PI3K/mTOR-inhibitor for intravenous administration” (Pfizer Inc., priority 2014, dated 2020)
Where “and” joins values, the source holds several entries; their conditions need not be identical. Equal entries are not always repeated.

Tests used:
Type in all cases: physicochemical
[1] = Visual observation of solution clarity (light box per European Pharmacopoeia Method 2.9.20, black and white background, Tyndall beam)
From the text: A clear solution is defined as a visually clear solution essentially free from any visible particulates that can be observed on a visual inspection. Generally, if any particulate matter is observed, the formulation is not suitable for intravenous administration and should not be utilised as occlusion of blood vessels may occur. Accordingly, in view of the qualitative nature of the visual test, the term “essentially free from any visible particulates” is usually applied when no visible particulate matter is observed.
The visual inspection can be conducted in accordance with the method defined in European Pharmacopoeia Method 2.9.20 entitled “Particulate contamination: visible particles”. […]
By this method the solution in the vial was visually inspected in a Verivide DCAC60 (trade mark) light cabinet using a light meter reading of 3250 lux against a matt black panel and a white panel.
At the end of the 5 day period the pH of each sample was measured and a visual observation of each sample was made using a light box as described in European Pharmacopoeia Method 2.9.20 (above), inspecting the samples against a black and a white background. […]
These samples were visually assessed made using a light box as described in European Pharmacopoeia Method 2.9.20 (above), inspecting the samples against a black and a white background. […] The pH was also measured. […]

[2] = pH measurement of aqueous formulation samples; details: for pH after dilution: roller bed overnight; for pH Check after 6 Days / pH Check after 48 hours: Investigation 5; for pH: Investigation 6, 15 hours
Description: (§1) At the end of the 5 day period the pH of each sample was measured and a visual observation of each sample was made using a light box as described in European Pharmacopoeia Method 2.9.20 (above), inspecting the samples against a black and a white background. The sample was also tested by illumination using a narrow (Tyndall) beam light source and then visually inspected from a direction perpendicular to the light beam in order to identify undissolved solid particles.
as §1, with “specified rolling” for “5 day”
as §1, with “These samples were visually assessed” for “At the end of the 5 day period the pH of each sample was measured and a visual observation of each sample was”, “particles. The pH was also measured.” for “particles.”
as §1, with “These samples were visually assessed” for “At the end of the 5 day period the pH of each sample was measured and a visual observation of each sample was made”, “particles. The pH was also measured.” for “particles.”
The diluted samples were placed on a roller bed overnight in order to reach equilibrium. The pH was also measured.
These samples were visually assessed using a light box as described in European Pharmacopoeia method 2.9.20 (above), inspecting the samples against a black and a white background. The sample was also tested by illumination using a narrow (Tyndall) beam light source and then visually inspected from a direction perpendicular to the light beam in order to identify undissolved solid particles. […] The pH was also measured.

[3] = Chemical and physical stability of crystalline free base on storage; details: crystalline form, 25° C. and 60% Relative Humidity
[4] = Water solubility of free base; details: for aqueous solution formulation at therapeutic dosage levels
[5] = Investigation 4, 3 mg/mL with 6.8 mole equivalents orthophosphoric acid (33.3 mM), roller bed room temperature ca. 19 hours, N = 1-3

## CN(C)C1CCN(C(=O)c2ccc(NC(=O)Nc3ccc(-c4nc(N5CCOCC5)nc(N5CCOCC5)n4)cc3)cc2)CC1 [1-(4-{[4-(Dimethylamino)piperidin-1-yl]carbonyl}phenyl)-3-[4-(4,6-dimorpholin-4-yl-1,3,5-triazin-2-yl)phenyl]urea]
[1]; [5]
  Visual assessment: Clear
[1]; Investigation 5, 3, 4 and 5 mg/mL in 33.3 mM acetic acid buffer pH 3.35, roller bed room temperature, 24 hour, 48 hour, 72 hour and 6 day periods
  Visual assessment: does not produce a clear solution
[2]; [5]
  Final pH: 2.15 and 2.17
[2]; Investigation 4, orthophosphoric acid samples diluted to 0.05 mg/mL
  pH after dilution: 3.47 and 3.48 and 3.49
[2]; Investigation 4, orthophosphoric acid samples diluted to 0.1 mg/mL
  pH after dilution: 3.21 and 3.20
[2]; Investigation 4, orthophosphoric acid samples diluted to 0.5 mg/mL
  pH after dilution: 2.64 and 2.63
[2]; 3 mg/mL in 33.3 mM acetic acid
  pH Check after 6 Days: 3.99 and 3.95 and 3.96
  pH Check after 48 hours: 3.89 and 3.90
[2]; 4 mg/mL in 33.3 mM acetic acid
  pH Check after 6 Days: 4.03 and 4.04
  pH Check after 48 hours: 3.94 and 3.95
[2]; 5 mg/mL in 33.3 mM acetic acid
  pH Check after 6 Days: 4.18 and 4.19
  pH Check after 48 hours: 3.99 and 4.00
[2]; 3 mg/mL, ca. 6.8 mole equivalents orthophosphoric acid
  pH: 2.02 and 2.03 and 2.05
[2]; 3.5 mg/mL, ca. 5.9 mole equivalents orthophosphoric acid
  pH: 2.09 and 2.07
[3]
  chemically and physically stable (duration): up to 3 years
[4]
  water solubility: insufficiently water soluble
